What was measured:
CYP3A4 [1] = target: T1, CYP3A4 (Homo sapiens, UniProt P08684, S18F); test: Product formation; conditions: for Product formation rate after second substrate binding: intermediate with two molecules bound ([20]/[02]); for CBZ Product Rate / PGS Product Rate: mixed substrate global fit
CYP3A4 [2] = target: T1, CYP3A4; test: Steady-state NADPH oxidation by CYP3A4 Nanodiscs with CPR; format: biochemical

SMILES | Product formation rate with only one substrate molecule bound (CYP3A4 [1]; first binding intermediate, fitted parameters, in words) | Product formation rate after third binding event (CYP3A4 [1]; intermediate with three molecules bound ([03]), pure substrate) | Product formation rate after second substrate binding (CYP3A4 [1]; pure substrate) | CBZ Product Rate (CYP3A4 [1]; mixed intermediate [11]) | CBZ product formation rate (CYP3A4 [1]; mixed intermediate [12]) | CBZ Product Rate (CYP3A4 [1]; mixed intermediate [12]) | CBZ product formation rate (CYP3A4 [1]; mixed intermediate [21]) | CBZ Product Rate (CYP3A4 [1]; mixed intermediate [21]) | PGS product formation rate in CBZ/PGS mixture at high concentration (CYP3A4 [1]; CBZ/PGS 12:1 mixture, 60 µM and higher PGS) | Maximum PGS product formation rate in CBZ/PGS mixture (CYP3A4 [1]; CBZ/PGS 12:1 mixture, reached at 18–20 µM PGS) | Factor by which PGS hydroxylation in [11] is slower than in [20] (CYP3A4 [1]; [11] versus [20]) | Hill coefficient nH (CYP3A4 [1]; fitting with the Hill equation, pure PGS) | Rate of PGS hydroxylation (CYP3A4 [1]; mixed intermediate [11]) | PGS Product Rate (CYP3A4 [1]; mixed intermediate [11]) | PGS Product Rate (CYP3A4 [1]; mixed intermediate [12]) | PGS Product Rate (CYP3A4 [1]; mixed intermediate [21]) | Maximum rate of NADPH consumption, pure substrate (CYP3A4 [2]; at 30 µM PGS, at 200 µM CBZ) | NADPH consumption rate (CYP3A4 [2]; intermediate [20], pure PGS) | Rate of NADPH consumption at higher PGS concentrations (CYP3A4 [2]; pure PGS, above 30 µM, decreases down to this value)
NC(=O)N1c2ccccc2C=Cc2ccccc21 [CBZ, carbamazepine] | negligible | 3 min⁻¹ | 1.7 min⁻¹ | 0 (0.01) nmol/nmol/min | 4.5 min⁻¹ | 4.5 (2.0 – 6.0) nmol/nmol/min | 11 min⁻¹ | 11 (9.8 – 12.2) nmol/nmol/min | – | – | – | – | – | – | – | – | – | – | –
CC(=O)[C@H]1CC[C@H]2[C@@H]3CCC4=CC(=O)CC[C@]4(C)[C@H]3CC[C@]12C [PGS, progesterone] | – | – | 14.7 min⁻¹ | – | – | – | – | – | 4 min⁻¹ | 5 min⁻¹ | 4 | 1.7 | 4 min⁻¹ | 4 (3.7 – 4.2) nmol/nmol/min | 0 (0.01) nmol/nmol/min | 0 (0.02) nmol/nmol/min | 240 min⁻¹ | 388 min⁻¹ | 160 min⁻¹
